Reference: publication PMC8335727 (Inorganic Chemistry, 2021)
Read-outs that look alike come from different tables or passages of the source.

Key:
[1] = pKa by UV–vis titrations in 30% (v/v) DMSO/H2O; type: physicochemical; details: 30% (v/v) DMSO/H2O solvent mixture, I = 0.1 M (KCl), T = 25 °C
Source text: Proton dissociation constants (pKa) of drug molecules indicate the actual protonation state and the charge at a given pH, and therefore pKa are important parameters that affect the pharmacokinetic properties as well.
On the basis of the spectral changes two well-separated deprotonation processes were observed between pH 2 and 11. The first proton dissociation step taking place at pH < 5 is accompanied by a blue shift, and the λmax is shifted from 362 to 322 nm. This deprotonation step is attributed to the proton on the pyridinium nitrogen (PyH^+). Upon an increase of the pH a new process occurred as evidenced by a new band in the range of 350–450 nm (Figure 7b) and an isosbestic point at 350 nm, namely, the deprotonation of the hydrazinic nitrogen. In the strongly basic pH range (pH > 11.2) new broad bands appear at 400–600 nm (Figure 7b) with irreversible spectral changes most likely due to an oxidation of the TSC by the air oxygen.
Therefore, only two pKa values could be determined (Table 1) based on the deconvolution of the UV–vis spectra recorded at pH < 11.2 for HL^1 (molar absorbance spectra are seen in Figure S8a) as the oxidation hindered the accurate determination of the pKa for the aromatic OH group. Two pKa values were computed for HL^2 from the UV–vis titration data (Figure S9) as well; however, only one pKa was obtained in the case of HL^3 (Table 1), namely, that for the deprotonation of the PyH^+, since the proton dissociation of the hydrazinic nitrogen and the oxidation of the TSC were partly overlapped. On the basis of the determined pKa values, it can be concluded that the presence of the electron-donating methyl group in HL^2 results in a significant increase of both pKa values when compared to that of HL^1. A similar behavior was reported for the analogous 2-formylpyridine and 2-acetylpyridine TSC in our previous work.[67] […] All proligands are air-sensitive in the strongly basic pH range (pH > 11).
The metal complexes often undergo transformation processes upon dissolution, such as protonation, deprotonation, or dissociation to a metal-free ligand and metal ion depending on the pH, their concentration, and the solution speciation. The knowledge of the actual chemical form of the biologically active metal complexes in solution close to physiologically relevant conditions is quite important to elucidate the mechanism of action. Therefore, the solution stability of the copper(II) complexes (Cu(HL^1)Cl2, [Cu(L^2)Cl], and Cu(HL^3)Cl2) was studied by UV–vis spectrophotometry. […] At lower pH this type of complex is protonated, and thus the neutral ligand is bound via (Npyridine,N,S) donor atoms, while a mixed hydroxido complex with the (Npyridine,N,S^–)(OH) coordination pattern is formed in the basic pH range. On the basis of the close structural similarities between HL^1–HL^3 and the listed TSCs with a simpler scaffold, the formation of the same type of complexes is feasible. UV–vis titrations were performed with the complexes in a 30% (v/v) DMSO/H2O solvent mixture, and representative spectra are shown for Cu(HL^1)Cl2 in Figure 8. The spectra remain intact in a broad pH range (2.7–7.6), and an absorption band is observed with λmax at 406 nm being typical for a S → Cu charge transfer. This finding indicates the dominant presence of only one kind of complex, which is most probably the species with the (Npyridine,N,S^–) tridentate coordination mode. By decreasing the pH the λmax is hypsochromically shifted to 322 nm. […]

[2] = tested on: Colo320; assay: MTT cytotoxicity assay, Colo320; type: cell-based; details: Homo sapiens, COLO 320, 72 h of exposure
Protocol: The in vitro cytotoxicity of the TSCs HL^1–HL^3, copper(II) complexes Cu(HL^1)Cl2, [Cu(L^2)Cl], and Cu(HL^3)Cl2, and oxidized TSCs HL^1a′, HL^1a″, and HL^2c′·CH3COOH was tested in the doxorubicin-sensitive Colo205 and the multidrug-resistant Colo320 human colonic adenocarcinoma cell lines as well as in normal human embryonal lung fibroblast cells (MRC-5) by the colorimetric MTT assay. […]
2.5. In vitro cell studies
2.5.1. Cell lines and culture conditions
All cell culture reagents were obtained from Sigma-Aldrich and plastic ware from Sarstedt
(Germany). Doxorubicin-sensitive human colonic Colo 205 and multidrug resistant
Colo 320/MDR-LRP adenocarcinoma cell lines were purchased from LGC Promochem,
Teddington, UK. The cells were cultured in Roswell Park Memorial Institute (RPMI) 1640
medium supplemented with 10% heat-inactivated fetal bovine serum, 2 mM L-glutamine, 1 mM
Na-pyruvate and 100 mM Hepes. The cell lines were incubated at 37°C, in a 5% CO2, 95% air
MRC-5 human embryonal lung fibroblast cell line (ATCC CCL-171) was purchased from LGC
Promochem, Teddington, UK. The cell line was cultured in Eagle’s Minimal Essential Medi um
(EMEM, containing 4.5 g/L glucose) supplemented with a non-essential amino acid mixture, a
selection of vitamins and 10% heat-inactivated fetal bovine serum. The cells were incubated at
37°C, in a 5% CO2, 95% air atmosphere. All cell lines were detached with Trypsin-Versene
(EDTA) solution for 5 min at 37 °C.
The tested compounds were dissolved in DMSO using 10 mM concentration. Then stock solutions
were diluted in complete culture medium in 96-well microtiter plates, and two-fold serial dilutions
of compounds were prepared in 100 µL of RPMI 1640, horizontally. The semi-adherent colonic
adenocarcinoma cells were treated with Trypsin -Versene (EDTA) solution. They were adjusted to
a density of 1×10^4 cells in 100 µL of RPMI 1640 medium, and were added to each well, with the
exception of the medium control wells. The final volume of the wells containing compounds and
cells was 200 µL. The culture were incubated at 37 °C for 72 h; at the end of the incubation period,
20 µL of MTT solution (from a stock solution of 5 mg/mL) were added to each well. After
incubation at 37 °C for 4 h, 100 µL of SDS solution (10% in 0.01 M HCI) were added to each well
and the plates were further incubated at 37 °C overnight. The cell growth was determined using
both methods by measuring the optical density (OD) at 450 nm (ref. 620 nm) with a Multiscan EX
ELISA reader. Inhibition of the cell growth (expressed as IC 50: inhibitory concentration that
reduces by 50% the growth of the cells exposed to the tested compounds) was determined from
the sigmoid curve where 100 – ((ODsample ‒ ODmedium control)/(ODcell control ‒ ODmedium control)) × 100
values were plotted against the logarithm of compound concentrations. […]
0.76 tyrosyl radical/polypeptide. Samples containing 20 µM mR2 in 50 mM HEPES buffer, pH
7.50/100 mM NaCl, and 20 µM respective compound in 1% (v/v) DMSO/H2O, and 2 mM

| SMILES | pKa ([1]; read-out: pKa (PyH^+)) | IC50 [2] | pKa ([1]; read-out: pKa (NNH)) |
| --- | --- | --- | --- |
| Cc1cc(NC(=S)NN=Cc2ncccc2N)cc(C)c1O [HL^3, 3-Amino-2-formylpyridine 4-(4-hydroxy-3,5-dimethylphenyl)thiosemicarbazone] | 3.95 ± 0.04 | > 100 µM | – |
| CC(=NNC(=S)Nc1cc(C)c(O)c(C)c1)c1ccccn1 [HL^2, 2-Acetylpyridine 4-(4-hydroxy-3,5-dimethylphenyl)thiosemicarbazone] | 3.59 ± 0.02 | > 100 µM | 11.08 ± 0.02 |
| Cc1cc(NC(=S)NN=Cc2ccccn2)cc(C)c1O [HL^1, 2-Formylpyridine 4-(4-hydroxy-3,5-dimethylphenyl)thiosemicarbazone] | 3.01 ± 0.01 | 6.32 ± 0.49 µM | 10.55 ± 0.01 |
